Laboratory results as given in patent publication US20100267792A1, “Topical Compositions Containing Desthiobiotin and its Derivatives and a Method of Treating Skin” (AVON PRODUCTS, INC., priority 2007, published 2010).

How the values were obtained:
[1] = test system: Fibrillin-1 mRNA; assay: Fibrillin-1 gene expression by quantitative RT-PCR in fibroblasts; assay type: cell-based; conditions: 0.001% DL-Desthiobiotin, 48 h, normal human dermal fibroblasts, QPCR, compared to solvent control, p<0.05
Procedure: Cell Treatment: Normal human dermal fibroblasts were plated at 10^6 cells/100 mm tissue culture plates in 10 mls of standard growth medium and incubated at 37° C. and 10% CO2. Approximately 24 hours later, cells were dosed with test actives and solvent controls diluted in fresh growth medium and incubated for 48 hours at 37° C. Following 48-hour incubation, cell medium was removed, and 1 ml of TRIzol® reagent was added to lyse the cells in each plate. Cells from each plate were scraped, passed several times through a pipette, and collected into 1.5 ml centrifuge tubes. The cell lysates were incubated for 5 minutes at 15 to 30° C. to permit the complete dissociation of nucleoprotein complexes, and then stored at −80° C. for RNA isolation. RNA Isolation and RT PCR: RNA was isolated using standard procedures and was dissolved in RNase-free water and stored at −80° C. The concentration of total RNA was determined by using Agilent 2100 Bioanalyzer. […] Reverse Transcriptase (RT) reactions were conducted following the manufacturer's instructions provided by Applied Biosystems, Calif. After the RT step, the reactions were stored at −20° C. for QPCR analysis. QPCR was conducted in a total volume of 20 μl. Applied Biosystems (AB) Universal PCR master mix was used. […]

[2] = test system: LOXL1 regulatory elements (promoter region of the LOXL1 gene); assay: LOXL1 promoter luciferase-reporter assay; assay type: cell-based; conditions: 0.001% DL-Desthiobiotin, 24 h, human fibrosarcoma line HTI080, LOXL1/pGL3 vector, triplicate tests, p<0.05 compared to vehicle control
Source text: Vector construction, transfection and expression: The promoter region of the LOXL1 gene was isolated and cloned into the pGL3 Luciferase reporter plasmid (Promega) by standard methods known in the art and according to manufacturer's instructions. The LOXL1/pGL3 vector and the control vector pRL-NULL (Promega), containing no regulatory elements, were contransfected into the human fibrosarcoma line HTI080 using LipofectAMINE™ LTX Reagent (Invitrogen) according to manufacturer's directions. Transfected cells were allowed to recover for 24 h. The culture medium was then replaced with fresh medium containing various concentrations of DL-Desthiobiotin, and the transfected cells cultured for an additional 24 h. The cultures were subsequently washed with PBS and exposed to 100 microlit cell lysis buffer/25 cm^2 culture area and gently shaken at room temperature for 30 min. The culture flasks containing the cell lysate were then immediately placed at −80 °C. Determination of reporter activity: The activity of the reporter gene, firefly luciferase, was determined according to the manufacturer's instructions (Dual-Luciferase® Reporter Assay System, Promega). Briefly, the activity of the reporter gene is determined relative to that of a control vector encoding a second luciferase gene, that from Renilla reniformis. […]

In the case of `CC1NC(=O)NC1CCCCCC(=O)O` (racemic) [DL-Desthiobiotin], the “increase in Fibrillin-1 gene expression” value [1] was 47.55% and the “increase in expression of the reporter gene” value [2] was 90%.
